Test system: Puccinia recondita
Test: Protective activity against Puccinia recondita on wheat (brown rust of wheat)
Assay type: in vivo
Conditions: individual active compound, wheat leaves, visual rating
Protocol: The active compounds, separately or jointly, were prepared as a stock solution comprising 0.25% by weight of active compound in acetone or DMSO. 1% by weight of the emulsifier Uniperol® EL (welting agent having emulsifying and dispersant action based on ethoxylated alkylphenols) was added to this solution, and the mixture was diluted with water to the desired concentration.
Leaves of potted wheat seedlings of the cultivar “Kanzler” were sprayed to runoff point with an aqueous suspension having the concentration of active compound stated below. The next day, the treated plants were inoculated with a spore suspension of brown rust of wheat (Puccinia recondita). The plants were then placed in a chamber with high atmospheric humidity (90 to 95%) at 20 to 22° C. for 24 hours. During this time, the spores germinated and the germinal tubes penetrated into the leaf tissue. The next day, the test plants were returned to the greenhouse and cultivated at temperatures between 20 and 22° C. and at 65 to 70% relative atmospheric humidity for a further 7 days. The extent of the development of the rust fungus on the leaves was then determined visually.
The visually determined percentages of infected leaf areas were converted into efficacies in % of the untreated control:
The efficacy (E) is calculated as follows using Abbot's formula: E=(1−α/β)·100 α corresponds to the fungicidal infection of the treated plants in % and β corresponds to the fungicidal infection of the untreated (control) plants in %
An efficacy of 0 means that the infection level of the treated plants corresponds to that of the untreated control plants; an efficacy of 100 means that the treated plants were not infected.
The expected efficacies of mixtures of active compounds were determined using Colby's formula (Colby, S. R. “Calculating synergistic and antagonistic responses of herbicide combinations”, Weeds, 15, 20-22, 1967) and compared with the observed efficacies.
Colby's Formula: E=x+y−x·y/100 • E expected efficacy, expressed in % of the untreated control, when using the mixture of the active compounds A and B at the concentrations a and b • x efficacy, expressed in % of the untreated control, when using the active compound A at the concentration a
y efficacy, expressed in % of the untreated control, when using the active compound B at the concentration b

Compound	Efficacy in % of the untreated control (2.5 ppm in the spray liquor) [%]	Efficacy in % of the untreated control (5 ppm in the spray liquor) [%]	Efficacy in % of the untreated control (1 ppm in the spray liquor) [%]	Efficacy in % of the untreated control (12.5 ppm in the spray liquor) [%]
CC1CCN(c2c(-c3c(F)cc(F)cc3F)c(Cl)nc3ncnn23)CC1 [compound I, 5-chloro-7-(4-methylpiperidin-1-yl)-6-(2,4,6-trifluorophenyl)-[1,2,4]triazolo[1,5-a]pyrimidine]	42	53		
CCN(CC)C1COC2(CCC(C(C)(C)C)CC2)O1 (centres unmarked) [compound II, (8-tert-butyl-1,4-dioxaspiro[4.5]dec-2-yl)diethylamine]	0		0	0
